PMC11739737 (Clinical Pharmacology and Therapeutics, 2024)
Where two headings read alike, the source gives them in different places. Marks after values point to notes of the source that are not given here. Each block holds one compound with its values, some of them ahead of it.

How the values were obtained:
OAT1/3 = assay type: in vivo, human
OCT2 and MATE1/2-K [1] = assay: clinical; conditions: male, human, in vivo, geometric mean; for AUC(0-t): AUC0–8hour; for CL renal: CLr (0–8 h)
MATE1 = molecular target: T1, MATE1 (Homo sapiens, UniProt Q96FL8); assay: Inhibition of MATE1-mediated metformin uptake in MATE1-HEK293 cells; assay type: in vitro ADME; conditions: K i for MATE1, metformin (10 μM) uptake, 37°C, MATE1-HEK; average of experiments
T1 sequence (Q96FL8 1-570): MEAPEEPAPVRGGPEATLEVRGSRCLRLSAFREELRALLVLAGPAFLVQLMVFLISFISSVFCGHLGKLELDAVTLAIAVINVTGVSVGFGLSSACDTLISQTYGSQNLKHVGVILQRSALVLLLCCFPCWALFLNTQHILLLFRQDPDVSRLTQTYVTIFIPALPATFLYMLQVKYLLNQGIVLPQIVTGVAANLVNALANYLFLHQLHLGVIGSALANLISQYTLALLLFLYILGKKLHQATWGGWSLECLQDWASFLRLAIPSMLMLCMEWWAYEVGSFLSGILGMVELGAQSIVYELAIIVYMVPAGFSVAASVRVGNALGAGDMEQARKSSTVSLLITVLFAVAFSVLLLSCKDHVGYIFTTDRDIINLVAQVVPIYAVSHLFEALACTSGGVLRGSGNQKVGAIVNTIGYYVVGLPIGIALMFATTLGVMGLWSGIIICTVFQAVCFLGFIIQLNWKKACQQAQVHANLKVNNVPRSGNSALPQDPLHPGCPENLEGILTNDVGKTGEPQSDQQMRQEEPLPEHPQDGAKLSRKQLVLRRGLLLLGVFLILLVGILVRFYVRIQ

[2] = cited from earlier work
MATE2‐K = MATE2‐K (Homo sapiens, UniProt Q86VL8); assay: Inhibition of MATE2‐K-mediated metformin uptake in MATE2‐K-HEK293 cells; assay type: in vitro ADME
Sequence of MATE2‐K (Q86VL8 1-566 isoform Q86VL8-3): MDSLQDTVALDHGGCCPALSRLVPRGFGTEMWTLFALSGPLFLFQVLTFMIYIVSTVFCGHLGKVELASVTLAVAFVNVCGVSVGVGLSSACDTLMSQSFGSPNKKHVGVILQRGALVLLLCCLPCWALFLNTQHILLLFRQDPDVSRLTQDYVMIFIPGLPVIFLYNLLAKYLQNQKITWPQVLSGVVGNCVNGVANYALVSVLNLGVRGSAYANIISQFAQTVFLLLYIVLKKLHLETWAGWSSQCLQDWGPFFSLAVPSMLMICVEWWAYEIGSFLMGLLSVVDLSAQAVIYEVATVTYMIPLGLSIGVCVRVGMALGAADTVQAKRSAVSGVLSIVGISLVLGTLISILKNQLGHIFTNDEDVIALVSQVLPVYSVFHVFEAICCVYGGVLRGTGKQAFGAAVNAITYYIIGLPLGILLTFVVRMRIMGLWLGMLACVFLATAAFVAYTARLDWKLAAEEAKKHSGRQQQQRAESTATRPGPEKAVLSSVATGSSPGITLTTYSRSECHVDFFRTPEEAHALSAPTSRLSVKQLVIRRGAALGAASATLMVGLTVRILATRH

[3] = assay type: in vivo, human; conditions: for Cmax: geometric mean (geometric %CV); for half-life: half‐life after T max
OCT2 = molecular target: T2, OCT2 (Homo sapiens, UniProt O15244); assay: Inhibition of OCT2-mediated metformin uptake in OCT2-HEK293 cells; assay type: in vitro ADME; conditions: HEK293 cells stably expressing OCT2, pH 7.4, probe metformin (10 μM)
T2 sequence (O15244 1-555): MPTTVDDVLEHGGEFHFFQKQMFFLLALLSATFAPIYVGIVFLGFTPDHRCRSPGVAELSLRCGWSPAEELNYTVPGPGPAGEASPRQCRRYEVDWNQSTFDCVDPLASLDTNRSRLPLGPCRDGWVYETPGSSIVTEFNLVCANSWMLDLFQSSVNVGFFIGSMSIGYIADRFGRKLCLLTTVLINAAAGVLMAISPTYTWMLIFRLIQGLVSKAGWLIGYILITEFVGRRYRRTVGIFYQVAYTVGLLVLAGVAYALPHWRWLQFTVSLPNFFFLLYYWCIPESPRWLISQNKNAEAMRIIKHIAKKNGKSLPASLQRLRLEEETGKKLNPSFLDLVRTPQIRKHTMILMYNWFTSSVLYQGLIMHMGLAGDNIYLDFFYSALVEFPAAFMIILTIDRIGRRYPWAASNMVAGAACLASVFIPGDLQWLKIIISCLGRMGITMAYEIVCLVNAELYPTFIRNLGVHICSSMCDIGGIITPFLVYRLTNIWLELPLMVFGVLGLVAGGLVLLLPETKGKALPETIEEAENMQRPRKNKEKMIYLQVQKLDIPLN

recombinant NNMT protein = molecular target: T3, recombinant NNMT protein (Homo sapiens, UniProt P40261); assay: NNMT activity assay; assay type: biochemical; conditions: nicotinamide 100 μM, 37°C, 6 min
T3 sequence (P40261 1-264): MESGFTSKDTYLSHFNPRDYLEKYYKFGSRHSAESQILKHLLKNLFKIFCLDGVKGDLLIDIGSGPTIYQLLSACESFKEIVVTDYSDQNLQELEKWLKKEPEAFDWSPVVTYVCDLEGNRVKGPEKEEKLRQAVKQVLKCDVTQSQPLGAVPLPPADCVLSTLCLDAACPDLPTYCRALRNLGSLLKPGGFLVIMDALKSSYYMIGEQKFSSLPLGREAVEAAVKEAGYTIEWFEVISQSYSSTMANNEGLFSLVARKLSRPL

OCT2 and MATE1/2-K [4] = assay: clinical; conditions: male, human, in vivo; for AUC(0-t): AUC0–24hour, geometric mean; for Cmax: C max of metformin; for Cmax / CL renal: geometric mean (geometric %CV); for CL renal: CLr of metformin (0–24 hour)
OCT2 and MATE1/2‐K [5] = conditions: for fe of metformin (fraction recovered in the urine): geometric mean (geometric %CV)
OCT2 and MATE1/2‐K [6] = conditions: at fifth dose of dolutegravir
[7] = dolutegravir (fifth) + metformin
[8] = dolutegravir (first) + metformin
[9] = male, human, plasma, oral, 50 mg
[10] = 50 mg, with dolutegravir 50 mg BID, fifth dose
[11] = 50 mg, with dolutegravir 50 mg BID, first dose

Compound: CN1CC(=O)NC1=N [Creatinine, creatinine]
AUC(0-t) (OCT2 and MATE1/2-K [1]; baseline): 641 µM·h
AUC(0-t) (OCT2 and MATE1/2-K [1]; cimetidine 400 mg + metformin): 669 µM·h
AUC(0-t) (OCT2 and MATE1/2-K [1]; cimetidine 800 mg + metformin): 689 µM·h
AUC(0-t) (OCT2 and MATE1/2-K [1]; control (metformin alone)): 600 µM·h
AUC(0-t) (OCT2 and MATE1/2-K [1]; [7]): 691 µM·h
AUC(0-t) (OCT2 and MATE1/2-K [1]; [8]): 712 µM·h

Compound: C[C@@H]1CCO[C@H]2Cn3cc(C(=O)NCc4ccc(F)cc4F)c(=O)c(O)c3C(=O)N12 [Dolutegravir]
Ki (MATE1): 830 nM
elimination half‐life [2]: 13 to 14 h
Ki (MATE2‐K): 2970 ± 400 nM
AUC [3, 9]: 209 µM·h
AUC(0-inf) [3, 9]: 141 µM·h
Cmax ([3]; male, human, plasma, oral, 50 mg, C max up to 12 hours after metformin administration, dolutegravir 50 mg BID, fifth dose): 21.7 µM
Cmax ([3]; male, human, plasma, oral, 50 mg, C max up to 12 hours after metformin administration, dolutegravir 50 mg BID, first dose): 7.07 µM
half-life ([3]; male, human, plasma, oral, 50 mg, dolutegravir 50 mg BID, fifth dose): 16.6 ± 1.7 h
half-life ([3]; male, human, plasma, oral, 50 mg, dolutegravir 50 mg BID, first dose): 13 ± 1.1 h
Ki at 2 min (OCT2): 290 ± 40 nM
inhibition of the activity of NNMT (recombinant NNMT protein; dolutegravir 30 μM): eliminated the possibility

Compound: Cn1cnc2c(ncn2[C@@H]2O[C@H](CO)[C@@H](O)[C@H]2O)c1=N [m^1A, N1‐methyladenosine]
clearance for tubular secretion remaining (CLr minus creatinine CLr) (OCT2 and MATE1/2‐K [6]): 29%
AUC(0-t) (OCT2 and MATE1/2-K [1]; baseline): 0.822 µM·h
AUC(0-t) (OCT2 and MATE1/2-K [1]; cimetidine 400 mg + metformin): 0.918 µM·h
AUC(0-t) (OCT2 and MATE1/2-K [1]; cimetidine 800 mg + metformin): 0.984 µM·h
AUC(0-t) (OCT2 and MATE1/2-K [1]; control (metformin alone)): 0.791 µM·h
AUC(0-t) (OCT2 and MATE1/2-K [1]; [7]): 1.12 µM·h
AUC(0-t) (OCT2 and MATE1/2-K [1]; [8]): 0.977 µM·h
CL renal (OCT2 and MATE1/2-K [1]; baseline): 188 mL/min
CL renal (OCT2 and MATE1/2-K [1]; cimetidine 400 mg + metformin): 198 mL/min
CL renal (OCT2 and MATE1/2-K [1]; cimetidine 800 mg + metformin): 159 mL/min
CL renal (OCT2 and MATE1/2-K [1]; control (metformin alone)): 198 mL/min

The next lines start with results.

magnitude of inhibition of CLr (OAT1/3; at fifth dose of dolutegravir): at most 21%
change in CLr (OAT1/3; with cimetidine): no change
Compound: Cc1ncc(CO)c(C(=O)O)c1O [pyridoxic acid]

Cmax ([3]; male, human, plasma, oral, 800 mg, maximum plasma concentration (C max), cimetidine 800 mg): 25.7 µM
inhibition of the activity of NNMT (recombinant NNMT protein; cimetidine 20 μM): eliminated the possibility
Compound: CN/C(=N/CCSCc1nc[nH]c1C)NC#N [Cimetidine]
adverse event ([3]; one subject, cimetidine 800 mg (Period 2), judged to have no causal relationship with the study drug): Vomiting

AUC(0-t) (OCT2 and MATE1/2-K [4]; [10]): 213 µM·h
AUC(0-t) (OCT2 and MATE1/2-K [4]; [11]): 123 µM·h
Cmax (OCT2 and MATE1/2-K [4]; [10]): 23.8 µM
Cmax (OCT2 and MATE1/2-K [4]; [11]): 17 µM
CL renal (OCT2 and MATE1/2-K [4]; [10]): 199 mL/min
CL renal (OCT2 and MATE1/2-K [4]; [11]): 339 mL/min
AUC(0-t) (OCT2 and MATE1/2-K [4]; 800 mg, with cimetidine 800 mg): 154 µM·h
Cmax (OCT2 and MATE1/2-K [4]; 800 mg, with cimetidine 800 mg): 28 µM
CL renal (OCT2 and MATE1/2-K [4]; 800 mg, with cimetidine 800 mg): 269 mL/min
decrease of CLr of metformin (OCT2 and MATE1/2‐K [5]; cimetidine 400 mg): 15.5%
increase of AUC of metformin (OCT2 and MATE1/2‐K [5]; cimetidine 400 mg): 1.7 times
decrease of CLr of metformin (OCT2 and MATE1/2‐K [5]; cimetidine 800 mg): 42.5%
increase of AUC of metformin (OCT2 and MATE1/2‐K [5]; cimetidine 800 mg): 2.2 times
increase of C max of metformin (OCT2 and MATE1/2‐K [5]; co‐administration of cimetidine 400 mg): 2.1 times
increase of C max of metformin (OCT2 and MATE1/2‐K [5]; co‐administration of cimetidine 800 mg): 2.7 times
decrease of CLr of metformin (OCT2 and MATE1/2‐K [5]; dolutegravir fifth dose): 56.9%
decrease of CLr of metformin (OCT2 and MATE1/2‐K [5]; dolutegravir first dose): 26.8%
increase of AUC of metformin (OCT2 and MATE1/2‐K [5]; fifth dose of dolutegravir): 3.0 times
increase of C max of metformin (OCT2 and MATE1/2‐K [5]; fifth dose of dolutegravir): 2.3 times
increase of AUC of metformin (OCT2 and MATE1/2‐K [5]; first dose of dolutegravir): 1.8 times
increase of C max of metformin (OCT2 and MATE1/2‐K [5]; first dose of dolutegravir): 1.6 times
fe of metformin (fraction recovered in the urine) (OCT2 and MATE1/2‐K [5]; metformin 500 mg alone (control)): 0.649 (13.7)
fe of metformin (fraction recovered in the urine) (OCT2 and MATE1/2‐K [5]; with cimetidine 400 mg): 0.940 (13.9)***
fe of metformin (fraction recovered in the urine) (OCT2 and MATE1/2‐K [5]; with cimetidine 800 mg): 0.826 (22.1)**
fe of metformin (fraction recovered in the urine) (OCT2 and MATE1/2‐K [5]; with dolutegravir 50 mg BID, fifth dose): 0.844 (20.7)**
fe of metformin (fraction recovered in the urine) (OCT2 and MATE1/2‐K [5]; with dolutegravir 50 mg BID, first dose): 0.828 (20.6)**
Compound: CN(C)C(=N)N=C(N)N [Metformin]
